Test results published in ChEMBL document CHEMBL3734721 (J Med Chem, 2015).
Values after ≈ are worked out from the molar mass of the structure shown.

Key:
[1] = Chemical stability of compound in buffer at pH 7.4 assessed as compound remaining at 10 mg/ml after 2 days; format: physicochemical; conditions: read-out: Stability
[2] = target: T1, 5-hydroxytryptamine receptor 7 (Homo sapiens, UniProt P34969); assay: Antagonist activity at human wild-type 5-HT7 receptor expressed in HEK cells assessed as seretonin-induced cAMP by HTRF assay; format: functional, cell-based, HEK293
[3] = Ratio of drug level in brain to plasma in Swiss mouse at 5 mg/kg, sc; format: ADME, organism-based; conditions: read-out: BPR
[4] = Chemical stability of compound in DMSO assessed as compound remaining at 10 mg/ml after 1 day at room temperature; format: physicochemical; conditions: read-out: Stability
[5] = Fraction unbound in rat brain at 5 uM after 5 hrs by LC-MS/MS analysis; format: ADME, tissue-based
[6] = Fraction unbound in human plasma at 5 uM after 4.5 hrs by LC-MS/MS analysis; format: ADME, cell-free
[7] = Chemical stability of compound in 0.1N NaOH assessed as compound remaining at 10 mg/ml after 2 days; format: physicochemical; conditions: read-out: Stability
[8] = Chemical stability of compound in 0.1N HCL assessed as compound remaining at 10 mg/ml after 1 day; format: physicochemical; conditions: read-out: Stability
[9] = target: T1, 5-hydroxytryptamine receptor 7; assay: Agonist activity at human wild-type 5-HT7 receptor expressed in HEK cells assessed as cAMP by HTRF assay; format: functional, cell-based, HEK293
[10] = Chemical stability of compound in 0.1N HCL and 0.5% H2O2 assessed as compound remaining at 10 mg/ml after 1 day; format: physicochemical; conditions: read-out: Stability
[11] = system: human MDR1; assay: Permeability across apical to basolateral in MDCK expressing human MDR1 at 5 uM by LC-MS/MS method; format: ADME, cell-based, Canis lupus familiaris; conditions: dog, read-out: permeability
[12] = Chemical stability of compound in 0.1N NaOH assessed as compound remaining at 10 mg/ml after 1 day; format: physicochemical; conditions: read-out: Stability
[13] = target: T2, Cytochrome P450 1A2 (Homo sapiens, UniProt P05177); assay: Inhibition of human CYP1A2 by LC-MS analysis; format: ADME
T2 sequence (P05177 whole entry): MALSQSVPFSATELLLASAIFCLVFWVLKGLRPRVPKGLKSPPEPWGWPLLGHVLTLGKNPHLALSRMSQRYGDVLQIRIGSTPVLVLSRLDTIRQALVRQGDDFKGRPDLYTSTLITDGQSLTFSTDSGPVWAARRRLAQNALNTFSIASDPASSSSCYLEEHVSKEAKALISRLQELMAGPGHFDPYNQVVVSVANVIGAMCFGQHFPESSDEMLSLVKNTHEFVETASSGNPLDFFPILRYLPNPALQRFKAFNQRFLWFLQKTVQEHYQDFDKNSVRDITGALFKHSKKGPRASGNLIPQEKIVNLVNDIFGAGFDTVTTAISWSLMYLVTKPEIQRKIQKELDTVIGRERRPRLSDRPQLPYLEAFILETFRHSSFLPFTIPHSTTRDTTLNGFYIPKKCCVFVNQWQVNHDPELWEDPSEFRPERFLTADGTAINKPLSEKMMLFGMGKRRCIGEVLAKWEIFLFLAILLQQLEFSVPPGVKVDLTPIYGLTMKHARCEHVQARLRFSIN

[14] = Fraction unbound in mouse plasma at 5 uM after 4.5 hrs by LC-MS/MS analysis; format: ADME, cell-free
[15] = target: T3, 5-hydroxytryptamine receptor 6 (Homo sapiens, UniProt P50406); assay: Agonist activity at human 5-HT6 receptor expressed in 1321N1 cells assessed as cAMP by HTRF assay; format: functional, cell-based
[16] = target: T3, 5-hydroxytryptamine receptor 6; assay: Antagonist activity at human 5-HT6 receptor expressed in 1321N1 cells assessed as seretonin-induced cAMP by HTRF assay; format: functional, cell-based
[17] = Chemical stability of compound in buffer at pH 7.4 assessed as compound remaining at 10 mg/ml after 1 day; format: physicochemical; conditions: read-out: Stability
[18] = Cmax in Swiss mouse brain at 5 mg/kg, sc; format: ADME, organism-based; design: dose 5 mg/kg, route subcutaneous
[19] = target: T4, Cytochrome P450 2C8 (Homo sapiens, UniProt P10632); assay: Inhibition of human CYP2C8 by LC-MS analysis; format: ADME
T4 sequence (P10632 whole entry): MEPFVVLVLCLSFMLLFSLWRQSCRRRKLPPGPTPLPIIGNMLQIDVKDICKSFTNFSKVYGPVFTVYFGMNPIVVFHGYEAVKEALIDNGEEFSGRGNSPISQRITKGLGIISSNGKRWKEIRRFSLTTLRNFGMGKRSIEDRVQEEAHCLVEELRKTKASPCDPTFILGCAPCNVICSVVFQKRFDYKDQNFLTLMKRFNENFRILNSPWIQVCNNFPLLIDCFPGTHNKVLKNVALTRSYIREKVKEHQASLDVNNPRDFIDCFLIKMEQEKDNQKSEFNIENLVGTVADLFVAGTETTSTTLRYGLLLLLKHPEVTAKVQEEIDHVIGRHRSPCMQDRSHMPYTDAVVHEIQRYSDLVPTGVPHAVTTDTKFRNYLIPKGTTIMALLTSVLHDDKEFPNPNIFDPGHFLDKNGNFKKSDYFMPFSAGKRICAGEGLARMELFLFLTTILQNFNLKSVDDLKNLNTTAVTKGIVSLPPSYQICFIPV

[20] = Fraction unbound in rat plasma at 5 uM after 4.5 hrs by LC-MS/MS analysis; format: ADME, cell-free
[21] = Chemical stability of compound in DMSO assessed as compound remaining at 10 mg/ml after 24 days at room temperature under air; format: physicochemical; conditions: read-out: Stability
[22] = target: Cytochrome P450 2C19 (Homo sapiens, UniProt P33261); assay: Inhibition of human CYP2C19 by LC-MS analysis; format: ADME
[23] = system: HepG2; assay: Cytotoxicity against human HepG2 cells; format: cell-based
[24] = Kinetic solubility of compound in phosphate buffer at pH 7.4 for 4 hrs by UPLC/UV analysis; format: physicochemical; conditions: read-out: Kinetic_solubility
[25] = Chemical stability of compound in DMSO assessed as compound remaining at 10 mg/ml after 2 days at room temperature; format: physicochemical; conditions: read-out: Stability
[26] = target: Cytochrome P450 2C9 (Homo sapiens, UniProt P11712); assay: Inhibition of human CYP2C9 by LC-MS analysis; format: ADME
Sequence of Cytochrome P450 2C9 (P11712 whole entry): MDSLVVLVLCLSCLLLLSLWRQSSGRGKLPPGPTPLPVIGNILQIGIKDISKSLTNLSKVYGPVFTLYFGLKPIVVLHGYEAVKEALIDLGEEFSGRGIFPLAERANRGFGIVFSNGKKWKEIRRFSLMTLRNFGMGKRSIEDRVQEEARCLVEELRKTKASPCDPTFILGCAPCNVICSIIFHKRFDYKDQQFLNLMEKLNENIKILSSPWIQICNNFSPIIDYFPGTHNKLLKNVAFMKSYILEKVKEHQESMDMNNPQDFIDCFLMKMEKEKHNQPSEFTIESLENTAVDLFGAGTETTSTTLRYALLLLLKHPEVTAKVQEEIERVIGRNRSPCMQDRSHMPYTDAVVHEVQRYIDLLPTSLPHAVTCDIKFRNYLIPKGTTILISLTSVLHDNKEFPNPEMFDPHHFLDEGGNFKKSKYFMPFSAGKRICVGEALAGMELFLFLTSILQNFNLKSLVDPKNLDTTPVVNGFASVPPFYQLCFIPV

T3 sequence (P50406 whole entry): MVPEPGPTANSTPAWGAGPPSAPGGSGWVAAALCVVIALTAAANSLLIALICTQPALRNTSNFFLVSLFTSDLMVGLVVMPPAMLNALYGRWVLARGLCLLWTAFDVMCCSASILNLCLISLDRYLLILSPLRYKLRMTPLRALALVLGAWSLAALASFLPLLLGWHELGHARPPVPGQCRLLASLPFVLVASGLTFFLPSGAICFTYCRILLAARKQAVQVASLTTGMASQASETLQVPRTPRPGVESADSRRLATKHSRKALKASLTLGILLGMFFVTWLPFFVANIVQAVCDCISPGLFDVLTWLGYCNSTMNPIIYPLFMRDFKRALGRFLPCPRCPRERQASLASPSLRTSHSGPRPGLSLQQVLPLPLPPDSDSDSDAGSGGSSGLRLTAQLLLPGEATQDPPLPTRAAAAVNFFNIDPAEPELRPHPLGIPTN
T1 sequence (P34969 whole entry): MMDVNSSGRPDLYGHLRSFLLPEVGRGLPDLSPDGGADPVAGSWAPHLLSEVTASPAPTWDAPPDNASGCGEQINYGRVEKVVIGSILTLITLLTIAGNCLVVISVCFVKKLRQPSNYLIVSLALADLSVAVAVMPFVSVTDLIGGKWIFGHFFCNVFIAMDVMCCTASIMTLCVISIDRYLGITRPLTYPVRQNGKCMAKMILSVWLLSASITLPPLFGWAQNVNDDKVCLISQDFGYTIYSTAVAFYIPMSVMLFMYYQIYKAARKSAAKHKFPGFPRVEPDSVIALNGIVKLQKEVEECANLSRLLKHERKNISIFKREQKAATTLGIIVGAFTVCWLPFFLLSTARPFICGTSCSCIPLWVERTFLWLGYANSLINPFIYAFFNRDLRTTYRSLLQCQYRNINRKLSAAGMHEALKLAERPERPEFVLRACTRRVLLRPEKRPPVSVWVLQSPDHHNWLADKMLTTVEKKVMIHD
Sequence of Cytochrome P450 2C19 (P33261 whole entry): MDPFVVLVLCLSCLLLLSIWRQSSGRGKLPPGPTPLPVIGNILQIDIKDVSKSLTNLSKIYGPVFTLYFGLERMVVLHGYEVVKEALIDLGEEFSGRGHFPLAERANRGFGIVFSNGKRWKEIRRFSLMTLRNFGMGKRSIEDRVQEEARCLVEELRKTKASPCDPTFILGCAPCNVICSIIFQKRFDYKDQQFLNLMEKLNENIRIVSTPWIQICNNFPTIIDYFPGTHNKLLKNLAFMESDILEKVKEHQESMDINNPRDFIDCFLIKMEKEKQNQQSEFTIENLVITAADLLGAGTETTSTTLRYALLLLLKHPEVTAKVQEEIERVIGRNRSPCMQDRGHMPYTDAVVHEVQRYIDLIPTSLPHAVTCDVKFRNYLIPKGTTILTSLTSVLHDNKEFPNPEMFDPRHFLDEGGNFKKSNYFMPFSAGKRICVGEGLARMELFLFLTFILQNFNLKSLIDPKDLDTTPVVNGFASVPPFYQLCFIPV

remaining at 48 h, 10 mg/ml [1]: 100%
IC50 [2]: > 5.01 µM
Kp [3]: 23
remaining at 24 h, 10 mg/ml [4]: 100%
fraction unbound at 5 h, 5 µM [5]: 0.028
fraction unbound at 4.5 h, 5 µM [6]: 0.421
remaining at 48 h, 10 mg/ml [7]: 100%
remaining at 24 h, 10 mg/ml [8]: 100%
EC50 [9]: > 5.01 µM
remaining at 24 h, 10 mg/ml [10]: 100%
Papp A→B at 5 µM [11]: 3.5 ×10⁻⁶ cm/s
remaining at 24 h, 10 mg/ml [12]: 100%
IC50 [13]: > 10 µM
fraction unbound at 4.5 h, 5 µM [14]: 0.212
EC50 [15]: > 5.01 µM
IC50 [16]: > 5.01 µM
remaining at 24 h, 10 mg/ml [17]: 100%
Cmax [18]: 16 µM
IC50 [19]: > 10 µM
fraction unbound at 4.5 h, 5 µM [20]: 0.239
remaining at 576 h, 10 mg/ml [21]: 100%
IC50 [22]: > 10 µM
solubility kinetic at 4 h [24]: 764 µM (≈ 198 µg/mL)
remaining at 48 h, 10 mg/ml [25]: 100%
IC50 [26]: > 10 µM
Compound: CC(C)NCC(O)COc1cccc2ccccc12 (stereo unspecified) [PROPRANOLOL]
EC20 [23]: > 100 µM
